A short description of test [1]: growth modulation of Clostridium difficile isolate – OD600, 9-point, retest, dose response (AID 1224920).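 For activity change, negative = inhibition: plate controls were DMSO for no effect and levofloxacin control for full effect.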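 Note: inhibitors lower culture turbidity so OD600 falls.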 Conditions: Clostridium difficile clinical isolate growth, OD600, 24 h.
The test system of test [2] is Clostridium difficile clinical isolate growth, OD600, 24 h. The description is as above.

“And” between values parts separate entries of the source, which are not always exact repeats. Equal entries are not always repeated. The source made the active and inactive calls.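 Rule for the calls: active = IC50 no higher than ten times the top tested dose; inconclusive = flat fit with 30 to 70% inhibition, or poor fit; inactive = IC50 above ten times the top dose.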

As usually defined, the IC50 is the midpoint of a concentration-inhibition curve.

Turning to `COc1ccccc1-c1ccc(C2[C@@H]3CN(Cc4nccs4)C[C@H]2N3)cc1` (stereo partly drawn), the activity change, negative = inhibition in test [1] (at 68 µM (top of the series)) is 37.9% (inactive).
Same read-out and setting: the result for `COc1ccc(-c2ccccc2[C@@H]2[C@@H](C#N)N(C(=O)NC3CCCC3)[C@H]2CO)cc1` reads -5% (inactive).
On to `O=C(C[C@@H]1CC[C@@H]2[C@H](COC[C@@H](O)CN2S(=O)(=O)c2ccccc2)O1)NCc1ccc(-c2ccccc2)cc1`, for which, in test [1] (at 120 µM (top of the series)), the activity change, negative = inhibition was 43.8% (inactive).
For the compound `O=C(Nc1ccccc1)N1CCCCN2[C@H](CO)[C@H](c3ccc(-c4ccccc4F)cc3)[C@H]2C1`, the activity change, negative = inhibition in test [1] (at 30 µM (top of the series)) was 38.6% (inactive).
As to `N#C[C@@H]1[C@@H](c2ccccc2-c2cccc(F)c2)[C@H](CO)N1C(=O)NC1CCCC1`, in test [1] (at 120 µM (top of the series)), the activity change, negative = inhibition was 10.6% (inactive).
As for `Cc1cccc(-c2ccc(C3[C@@H]4CN(C(=O)Cc5ccncc5)C[C@H]3N4)cc2)c1` (stereo partly drawn), in test [1] (at 60 µM (top of the series)), the activity change, negative = inhibition is 39.4% (inactive).
Regarding `COc1cccc(-c2ccc3c(c2)[C@@H]2[C@@H](CCN2C(=O)Nc2ccccc2OC)[C@@H](CO)N3C)c1`, the activity change, negative = inhibition in test [1] (at 135 µM (top of the series)) is -19.3% (inactive).
In the case of `O=C(NC[C@H]1N[C@H](CO)[C@@H]1c1ccc(C2=CCCC2)cc1)C1CCCCC1`, the activity change, negative = inhibition in test [1] (at 60 µM (top of the series)) was 36.2% (inactive).
In the case of `CC(=O)N(C)C[C@H]1[C@@H](c2ccc(-c3ccccc3F)cc2)[C@@H](CO)N1C(C)=O`, the activity change, negative = inhibition in test [1] (at 120 µM (top of the series)) was -10.3% (inactive).
Consider `Cc1ccc(-c2ccc([C@@H]3[C@H]4CN(C(=O)Nc5cccc(F)c5)CCCCN4[C@H]3CO)cc2)cc1`, for which, in test [1] (at 120 µM (top of the series)), the activity change, negative = inhibition is 6.7% (inactive).
For `OC[C@H]1[C@H](c2ccc(C#CC3CCCC3)cc2)[C@@H]2CN(CCC(F)(F)F)CCCCN12`, the IC50 in test [2] is 35 µM.
Same read-out and setting: to `Cc1cccc(-c2ccc(C3[C@H]4CNC[C@@H]3N4C(=O)Nc3ccc(F)cc3)cc2)c1` (stereo partly drawn) belongs 30.6 µM; to `Cc1cccc(-c2ccc(C3[C@@H]4CN(Cc5ccccc5)C[C@H]3N4)cc2)c1` (stereo partly drawn), 17.1 µM.
The same measure, in the same setting: to `O=C(NC[C@H]1N[C@H](CO)[C@@H]1c1ccc(C2=CCCCC2)cc1)c1ccc(F)cc1` belongs 29.1 µM.
Still for that read-out and setting: the result for `COc1cc(CN2[C@@H]3CNC[C@H]2C3c2ccc(-c3ccc(C#N)cc3)cc2)cc(OC)c1` (stereo partly drawn) reads 48.1 µM; that for `O=C(C1CCCCC1)N1C[C@@H]2N[C@H](C1)C2c1ccc(-c2ccccc2F)cc1` (stereo partly drawn), 55.9 µM; that for `Cc1ccccc1-c1ccc(C2[C@@H]3CN(C(=O)C4CCCCC4)C[C@H]2N3)cc1` (stereo partly drawn), 60.7 µM.
In the case of `N#Cc1ccc(-c2ccc([C@@H]3[C@H]4CNC[C@@H]3N4Cc3cc(F)ccc3F)cc2)cc1`, the IC50 in test [2] was 58.8 µM.
Consider `O=C(c1ccc(F)cc1)N1CC(=O)N2[C@H](CO)[C@H](c3ccc(C#CCC4CCCC4)cc3)[C@H]2C1`, for which the 50% inhibitory concentration (IC50) in test [2] is 81.6 µM.
Still for that read-out and setting: the result for `OC[C@@H]1Nc2ccc(C#Cc3ccc(F)cc3)cc2[C@H]2NCC[C@@H]12` reads 59.4 µM; that for `OC[C@@H]1Nc2ccc(-c3ccc(F)cc3)cc2[C@@H]2[C@H]1CCN2Cc1ccc(F)cc1`, 82.4 µM.
The same measure, in the same setting: to `O=C(Nc1ccc(C(F)(F)F)cc1)N1[C@@H]2CNC[C@H]1C2c1ccc(-c2ccccc2F)cc1` (stereo partly drawn) belongs 10.3 µM and 83.8 µM; to `O=C(C[C@H]1CC[C@@H]2[C@H](COC[C@H](O)CN2C(=O)Nc2ccc(Cl)c(Cl)c2)O1)NC1CCC1`, 8.25 µM; to `O=C(Nc1ccccc1F)N1CCCCN2[C@H](CO)[C@H](c3ccc(/C=C/c4ccccc4)cc3)[C@H]2C1`, 10.4 µM.
Still for that read-out and setting: the result for `COc1cccc(-c2ccc(C3[C@@H]4CN(Cc5cccc(F)c5)C[C@H]3N4)cc2)c1` (stereo partly drawn) reads 9.52 µM and 7.62 µM; that for `Cc1ccc(-c2ccc([C@@H]3[C@@H](CO)N4CCCCN(S(=O)(=O)c5cccc(C)c5)C[C@H]34)cc2)cc1`, 10.7 µM; that for `Cc1ccccc1-c1ccc(C2[C@H]3CNC[C@@H]2N3S(=O)(=O)c2ccccc2C)cc1` (stereo partly drawn), 31.8 µM.
In the case of `COc1ccccc1CN1C[C@@H]2N[C@H](C1)C2c1ccc(/C=C/c2ccccc2)cc1` (stereo partly drawn), the 50% inhibitory concentration (IC50) in test [2] was 3.7 µM and 19 µM.
Still for that read-out and setting: the result for `Fc1ccc(-c2ccc(C3[C@@H]4CN(Cc5nccs5)C[C@H]3N4)cc2)cc1` (stereo partly drawn) reads 63 µM; that for `OC[C@@H]1[C@H](c2ccc(/C=C/c3ccccc3)cc2)[C@H]2CN(CCC(F)(F)F)CCCCN12`, 28.7 µM; that for `O=C(Nc1ccc(F)cc1)N1CCCCN2[C@H](CO)[C@H](c3ccc(-c4cccc(F)c4)cc3)[C@H]2C1`, 70.3 µM.
On to `Cc1ccccc1-c1ccc([C@@H]2[C@H](CO)N3CCCCN(C(=O)Nc4cccc(F)c4)C[C@@H]23)cc1`, for which, in test [2], the IC50 is 14.7 µM.
Regarding `N#Cc1ccc(-c2ccc([C@@H]3[C@H]4CNC[C@@H]3N4Cc3ccc4c(c3)OCO4)cc2)cc1`, the half-maximal inhibitory concentration (IC50) in test [2] was 102 µM.
